Experiment [1] has as its target T1, human platelets (thromboxane receptor sites) (Homo sapiens, UniProt P21731).
T1 construct: Platelet-rich plasma is obtained from fresh, citrated human blood; endogenous in cells; host or cells: human platelets (platelet-rich plasma from fresh, citrated human blood)
T1 sequence (P21731 1-343): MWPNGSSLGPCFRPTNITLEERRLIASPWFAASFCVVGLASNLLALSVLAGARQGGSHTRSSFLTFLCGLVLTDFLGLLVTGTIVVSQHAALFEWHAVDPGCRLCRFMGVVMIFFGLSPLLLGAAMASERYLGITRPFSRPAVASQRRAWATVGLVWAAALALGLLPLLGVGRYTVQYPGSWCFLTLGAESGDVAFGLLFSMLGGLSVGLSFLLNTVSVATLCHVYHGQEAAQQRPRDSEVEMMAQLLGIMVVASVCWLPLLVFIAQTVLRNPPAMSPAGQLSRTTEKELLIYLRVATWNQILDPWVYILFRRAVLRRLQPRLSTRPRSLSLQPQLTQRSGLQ
Kind of experiment: Human platelet system: antagonism of aggregation by 11,9-(epoxymethano) PGH2. Format: cell-based. The settings on record: for Kb: against 11,9-epoxymethano analogue of PGH2, compound added 5 minutes previously, Gaddum-Schild Equation, read-out: AFFINITY CONSTANTS (KB), Human Platelets (converted). As to the method: Platelet-rich plasma is obtained from fresh, citrated human blood. Addition of the 11,9-epoxymethano analogue of PGH2 (1×10^-7 M to 5×10^-7 M) causes immediate aggregation recorded as an increase in light transmission (600 nm). In a second experiment the individual compounds are added 5 minutes previously to addition of the PGH2 analogue. The dose of the PGH2 analogue added is then increased to a level which gives a similar response to that obtained in the absence of antagonist. The affinity constant, KB, for the compound is calculated according to the Gaddum-Schild Equation (based on Law of Mass Action).
[B]=molar concentration of compound
(§1) Results typical of those obtained for the various compounds (all of which are of the formula shown at the beginning of Example 4 except where otherwise indicated) are shown in Table 3.

Experiment [2] concerns rabbit aorta (thromboxane receptor sites). Kind of experiment: Rabbit aorta system: antagonism of contraction by 11,9-(epoxymethano) PGH2. Set-up: key to Rabbit Aorta, affinity constant not given: (2): Partial agonist. Format: cell-based. The note with it: for Kb: Oryctolagus cuniculus, 0.5 h, Gaddum-Schild Equation, read-out: AFFINITY CONSTANTS, Rabbit Aorta (converted); for Kb / Rabbit Aorta, affinity constant not given: against 11,9-(epoxymethano) PGH2, compound added 30 minutes previously.
Excerpt: It is believed that such inhibition is the result of the compounds being thromboxane antagonists and the activity of the compounds is for convenience hereinafter discussed in these terms. […] Structural features which tend to endow a compound with a more pure antagonist form of activity are (a) the absence of a halogen substituent, particularly at the para position, in the benzene ring of a phenoxyethyl O-substituted oxime; (b) the absence of a halogen substituent at the meta position of a benzyl O-substituted oxime; and (c) the presence of two benzene rings in the oxime substituent,these rings being located, for example, on a carbon atom joined directly to the oxygen atom of the oxime group. Some activity has also been alserved in compounds according to the present invention on guinea pig tracheal muscle.
Spiral strips of thoracic aorta are suspended in Kreb's-Henseleit solution and aerated with 95% O2 /5% CO2 at 37° C. Tension changes are recorded with a Grass FTO3 force transducer. Initially, cumulative dose response curves to 11,9-(epoxymethano) PGH2 (2×10^-9, 1×10^-8, 5×10^-8 and 2.5×10^-7 M) are obtained. In a second experiment the individual compounds are added 30 minutes previously to the addition of the series of agonist doses. Affinity constants are calculated as above.
as §1

For experiment [3], the system named is platelets, archidonic acid. Description: Platelets: block of the aggregatory action of arachidonic acid. Format: cell-based, human. The note with it: converted to TXA2 by the platelet enzyme system.
The next experiment concerns α-adrenoceptors. Kind of experiment: Rabbit aorta strip: block of the contractile action of noradrenaline. Type of experiment: cell-based.

As to `O=C(O)CCC/C=C\C[C@@H]1[C@@H](C=NOCc2ccccc2)[C@@H]2C=C[C@H]1C2` (relative stereo), the Kb in experiment [1] is 5.26 µM; in experiment [2], 0.667 µM.
On the same counts, the results for `O=C(O)CCC/C=C\C[C@@H]1[C@@H](C=NOCc2ccc(Cl)cc2)[C@@H]2C=C[C@H]1C2` (relative stereo) are 4.76 µM and 0.149 µM.
On to `O=C(O)CCC/C=C\C[C@@H]1[C@@H](C=NOC(c2ccccc2)c2ccccc2)[C@@H]2C=C[C@H]1C2` (relative stereo), for which the results for the Kb in experiment [1] and in experiment [2] were 0.0196 µM and 1.69 µM, respectively.
For `O=C(O)CCC/C=C\C[C@@H]1[C@@H](C=NOCCOc2ccccc2)[C@@H]2C=C[C@H]1C2` (relative stereo), the Kb in experiment [1] is 20 µM; in experiment [2] it was 0.4 µM.
For the compound `O=C(O)CCC/C=C\C[C@@H]1[C@@H](C=NOCCOc2ccc(Cl)cc2)[C@@H]2C=C[C@H]1C2` (relative stereo), the Kb in experiment [1] is 10 µM. In experiment [2], the “Rabbit Aorta, affinity constant not given” value is on record as “(2)”.
As for `O=C(O)CCC/C=C\C[C@@H]1[C@@H](C=NOCCOc2ccc(F)cc2)[C@@H]2C=C[C@H]1C2` (relative stereo), the Kb in experiment [1] is 25 µM. Also, in experiment [2], the “Rabbit Aorta, affinity constant not given” value was “(2)”.
`O=C(O)CCC/C=C\C[C@H]1[C@H]2CC[C@H](C2)[C@@H]1C=NOCc1ccc(F)cc1` (relative stereo): the Kb in experiment [1] is 1.72 µM; in experiment [2], 0.435 µM.
For `O=C(O)CCC/C=C\C[C@H]1[C@H]2CC[C@H](C2)[C@@H]1C=NOCc1cccc(C(F)(F)F)c1` (relative stereo), the “Rabbit Aorta, affinity constant not given” value in experiment [2] was “(2)”.
Regarding `O=C(O)CCC/C=C\C[C@H]1[C@H]2CC[C@H](C2)[C@@H]1C=NOCc1cccc(Cl)c1` (relative stereo), in experiment [1], the Kb was 1.69 µM. Besides, in experiment [2], the “Rabbit Aorta, affinity constant not given” value is “(2)”.
Take `O=C(O)CCC/C=C\C[C@H]1[C@H]2CC[C@H](C2)[C@@H]1C=NOCc1ccc(Cl)cc1Cl` (relative stereo): the values for the Kb in experiment [1] and in experiment [2] were 3.57 µM and 0.238 µM, respectively.
In the case of `O=C(O)CCC/C=C\C[C@H]1[C@H]2CC[C@H](C2)[C@@H]1C=NOC(c1ccccc1)c1ccccc1` (relative stereo), the results for the Kb in experiment [1] and in experiment [2] were 0.0208 µM and 5.26 µM, respectively.
For `O=C(O)CCCCCC[C@H]1[C@H]2CC[C@H](C2)[C@@H]1C=NOCc1ccc(F)cc1` (relative stereo), the Kb in experiment [1] was 12 µM.
As to `CCCCCON=C[C@H]1[C@@H]2CC[C@@H](C2)[C@@H]1C/C=C\CCCC(=O)O` (relative stereo) [(CH2)4 CH3], the Kb in experiment [1] is 5.88 µM; in experiment [2], 6.67 µM.
For the compound `O=C(O)CCC/C=C\C[C@@H]1[C@@H](C=NOCc2ccc(F)cc2)[C@@H]2C=C[C@H]1C2` (relative stereo) [Example 1, 5-endo-(6'-Carboxyhex-2'-Z-enyl)-6-exo-(O-p-fluorobenzyloxyiminomethyl)-bicyclo[2,2,1]hept-2Z-ene], the “activity in the platelet test (in words)” value in experiment [1] (11,9-(epoxymethano) PGH2, human platelets in vitro) is recorded as “antagonists in the platelet test”. Also, the “activity in the rabbit aorta strip test (in words)” value in experiment [2] (11,9-(epoxymethano) PGH2, rabbit aorta strip) is “pure antagonists in the rabbit aorta strip test”. In experiment [3], the “block of aggregatory action of archidonic acid (in words)” value is reported as “block the aggregatory action of archidonic acid”. Also, the “block of contractile action of noradrenaline (in words)” value with α-adrenoceptors was “do not block the contractile action of noradrenaline”.
As for `O=C(O)CCC/C=C\C[C@@H]1[C@@H](C=NOCc2ccc(F)cc2)[C@@H]2C=C[C@H]1C2` (relative stereo) [drawing 29], the values for the Kb in experiment [1] and in experiment [2] were 2.5 µM and 0.278 µM, respectively.
